Measurements taken from US20200253868A1, “CELL AUTOPHAGY INHIBITOR AND PREPARATION METHOD THEREFOR AND APPLICATION THEREOF” (CHINA PHARMACEUTICAL UNIVERSITY, priority 2017, published 2020).

Legend:
[1] = system: KRAS dependent H441 cells; test: MTT assay of cell viability; type: cell-based, human; details: H441, 0, 50, 100, 200 nM, 24 hours
Protocol: (§1) MTT assay is used to determine the cell viability. KRAS independent A549 and H460 and KRAS dependent H441 and H358 cell lines which are cultured overnight in a 10% FBS medium, are digested by trypsin to form cell suspensions, which are seeded at a suitable concentration on a 96-well plate with 100 μl/well, cultured in a CO2 incubator for 24 hours until the cells are completely attached, and RA-V (1) with a final concentration of 0, 50, 100, 200 nM is added to react for 24 hours, and then 20 μl of MTT solution (5 mg/ml in PBS, pH=7.4) is added to each well and continue to incubate for 4 hours, stop the culture, and carefully discard the culture supernatant in the wells. Add 150 μl DMSO to each well and shake for 10 minutes to fully dissolve the crystals. Select the wavelength of 490 nm, measure the light absorption value of each well on the enzyme-linked immunosorbent detector, record the results, draw the cell growth curve with time as the abscissa and absorbance value as the ordinate.

[2] = system: KRAS dependent H358 cells; test: MTT assay of cell viability; type: cell-based, human; details: H358, 0, 50, 100, 200 nM, 24 hours
Protocol: as §1

[3] = system: A549 cells; test: Western blot of Capsase3, BCL-2 and BCL-XL; type: cell-based, human
Protocol: (§2) […] A549 and H460 cells which are cultured overnight in a 10% FBS medium are seeded in a 24-well plate at an appropriate density, after 24 hours, the cells are collected to detect the expression levels of […] proteins BCL-2, BCL-XL and […]3 by the Western blot experiment.

[4] = system: H460 cells; test: Western blot of Capsase3, BCL-2 and BCL-XL; type: cell-based, human
Protocol: as §2

[5] = system: KRAS dependent H441 cells; test: GFP-LC3 transfection, autophagosome formation by fluorescence microscope; type: cell-based, human; details: H441, 24 hours
Protocol: (§3) KRAS dependent H441 and H358 cells which are cultured overnight in a 10% FBS medium are seeded in a 24-well plate at an appropriate density and transfected with the GFP-LC3 plasmid, after 24 hours, RA-V (1) is added to react for 24 hours, and the localization of GFP-LC3 is observed with a fluorescence microscope, and the number of autophagy cells is calculated quantitatively.

[6] = system: KRAS dependent H358 cells; test: as above; type: cell-based, human; details: H358, 24 hours
Protocol: as §3

[7] = system: KRAS mutant HCT116 nude mice xenograft; test: Human colon cancer xenograft in nude mice, tumor inhibition rate; type: in vivo, BABL/c nude mice; details: injection via tail vein, once every other day, 14 days
Protocol: (§4) HCT116 is diluted with serum-free McCoy's 5a medium to 1×10^7 cells/mL, and 100 μL of the cell suspension is inoculated subcutaneously in the left armpit of BABL/c nude mice and grown for 7 days to form a tumor-bearing mouse model. The tumor-bearing mice with good growth are inoculated and randomly divided into groups. The RA-V nano-micelle injection prepared in Embodiment 3 is administered through the tail vein and administered once every other day, and the animals used are sacrificed 14 days after the administration, and the tumors are removed and weighed, calculate tumor suppression rate and perform statistical processing. Tumor inhibition rate (%)=(average tumor weight in the control group-average tumor weight in the experimental group)/average tumor weight in the control group×100%.
as §4, with “RA-XII(2)” for “The RA-V nano-micelle”, “injection” for “injection prepared in Embodiment 3”

[8] = system: KRAS independent A549 cells; test: PI/Annexin V double staining, flow cytometry; type: cell-based, human; details: A549, 24 hours
Protocol: (§5) KRAS independent A549 and H460 and KRAS dependent H441 and H358 cell lines which are cultured overnight in a 10% FBS medium, are digested by trypsin to form cell suspensions, which are seeded at a suitable concentration on a 6-well plate, after 24 h, RA-V (1) is added to treat for 24 hours, and are digested by trypsin, and centrifuge at 2000 rpm for 5-10 minutes at room temperature to collect cells; resuspend the cells once with pre-chilled 1×PBS (4° C.), centrifuge at 2000 rpm for 5-10 minutes, and wash the cells; add 300 μL of 1×Binding Buffer to resuspend the cells; add 5 μL of Annexin V-FITC and mix, and incubate for 15 minutes at room temperature away from light; add 5 μL of PI staining 5 minutes before the operation, and detect the cells by the flow cytometry.

[9] = system: KRAS dependent H441 cells; test: PI/Annexin V double staining, flow cytometry; type: cell-based, human; details: H441, 24 hours
Protocol: as §5

[10] = system: KRAS dependent H358 cells; test: PI/Annexin V double staining, flow cytometry; type: cell-based, human; details: H358, 24 hours
Protocol: as §5

[11] = system: KRAS independent H460 cells; test: PI/Annexin V double staining, flow cytometry; type: cell-based, human; details: H460, 24 hours
Protocol: as §5

[12] = system: KRAS dependent H441 model; test: Human lung cancer xenograft in nude mice, tumor inhibition rate; type: in vivo, BABL/c nude mice; details: 2.5 mg/kg, nano-micelle injection, tail vein, once every other day, 14 days
Protocol: as §4, with “Human lung cancer cells KRAS dependent H441 and KRAS independent H460 are” for “HCT116 is”, “physiological saline” for “serum-free McCoy's 5a medium”, “form” for “form a”

[13] = system: KRAS independent H460 model; test: as above; type: in vivo, BABL/c nude mice; details: 2.5 mg/kg, nano-micelle injection, tail vein, once every other day, 14 days
Protocol: as §4, with “Human lung cancer cells KRAS dependent H441 and KRAS independent H460 are” for “HCT116 is”, “physiological saline” for “serum-free McCoy's 5a medium”, “form” for “form a”

[14] = system: KRAS dependent H441 cells; test: Western blot of autophagy-related proteins LC3, Atg7 and Beclin1; type: cell-based, human; details: H441, 0, 50, 100, 200 nM, 24 hours
Protocol: (§6) KRAS dependent H441 and H358 cells which are cultured overnight in a 10% FBS medium are seeded in a 24-well plate at an appropriate density, after 24 hours, RA-V (1) with a concentration of 0, 50, 100, and 200 nM is added to react for 24 hours, and then the cells are collected to detect the expression levels of autophagy-related proteins LC3, Atg7 and Beclin1 by the Western blot experiment.

[15] = system: KRAS dependent H358 cells; test: as above; type: cell-based, human; details: H358, 0, 50, 100, 200 nM, 24 hours
Protocol: as §6

[16] = system: H358 cells; test: Western blot of Capsase3, BCL-2 and BCL-XL; type: cell-based, human
[17] = system: H441 cells; test: Western blot of Capsase3, BCL-2 and BCL-XL; type: cell-based, human

Row | Structure (SMILES) | cell survival (MTT) [1] | cell survival (MTT) [2] | cell apoptosis by expression of Capsase3, BCL-2 and BCL-XL [3] | cell apoptosis by expression of Capsase3, BCL-2 and BCL-XL [4] | GFP-LC3 of treated cells compared with the blank group [5] | GFP-LC3 of treated cells compared with the blank group [6] | tumor inhibition rate ([7]; HCT116, high dosage) [%] | tumor inhibition rate ([7]; HCT116, medium dosage) [%] | cell apoptosis (PI/Annexin V) [8] | cell apoptosis (PI/Annexin V) [9] | cell apoptosis (PI/Annexin V) [10] | cell apoptosis (PI/Annexin V) [11] | tumor inhibition rate [12] [%] | anti-tumor effect [13] | expression levels of LC3-II, Atg7 and Beclin1 [14] | expression levels of LC3-II, Atg7 and Beclin1 [15] | cell apoptosis by expression of Capsase3, BCL-2 and BCL-XL [16] | cell apoptosis by expression of Capsase3, BCL-2 and BCL-XL [17]
1 | COc1ccc(C[C@H]2C(=O)N[C@@H](C)C(=O)N(C)C3Cc4ccc(cc4)Oc4cc(ccc4O)C[C@@H](C(=O)N[C@H](C)C(=O)N[C@@H](C)C(=O)N2C)N(C)C3=O)cc1 [RA-V (1), RA-V] | inhibits the survival | inhibits the survival | no significant effect | no significant effect | significantly reduce | significantly reduce | 66.67 | 41.67 | no significant effect | significantly induces the cell apoptosis | significantly induces the cell apoptosis | no significant effect | 50.4 | not effective | decrease with the increase of the concentration | decrease with the increase of the concentration | significantly induces the cell apoptosis | significantly induces the cell apoptosis
2 | COc1ccc(C[C@H]2C(=O)N[C@@H](C)C(=O)N(C)C3Cc4ccc(cc4)Oc4cc(ccc4O[C@@H]4OC(CO)[C@@H](O)[C@H](O)C4O)C[C@@H](C(=O)N[C@H](C)C(=O)N[C@@H](C)C(=O)N2C)N(C)C3=O)cc1 (some centres unmarked) [RA-XII (2), RA-XII] | – | – | – | – | – | – | 79.92 | 68.47 | – | – | – | – | – | – | – | – | – | –
